PMC7156458, “Synthetic biology based construction of biological activity-related library of fungal decalin-containing diterpenoid pyrones” (Nature Communications, 2020)

Molecular target: Aβ42 (Homo sapiens, UniProt P05067)
Assay: Th-T (thioflavin-T) assay of Aβ42 aggregation
Assay type: biochemical
Settings: for Th-T fluorescence of Aβ42 (sheet Fig. 7a), mean of three wells: head suffix _50 (concentration 50); for Th-T assay plate reading, mean of three wells (Supplementary Fig. 47): source data, Ab alone and No Ab as controls; for Th-T fluorescence, mean of three wells: Supplementary Fig. 47 source data

Sequence of Aβ42 (P05067 672-713): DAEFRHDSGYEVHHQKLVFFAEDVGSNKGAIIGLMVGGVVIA

C=C1CC[C@@H]2[C@](C)(CC[C@H]3O[C@H](C=C(C)C)C[C@@]23C)[C@@H]1Cc1c(OC)oc(CO)c(C)c1=O [Compound 20]
Th-T fluorescence of Aβ42 (sheet Fig. 7a), mean of three wells (reading M73): 2.113 | Th-T fluorescence of Aβ42 (sheet Fig. 7a), mean of three wells (reading M74): 2.11 | Th-T fluorescence of Aβ42 (sheet Fig. 7a), mean of three wells (reading M75): 2.1032 | Th-T fluorescence of Aβ42 (sheet Fig. 7a), mean of three wells (reading M76): 2.123 | Th-T fluorescence of Aβ42 (sheet Fig. 7a), mean of three wells (reading M77): 2.122 | Th-T fluorescence of Aβ42 (sheet Fig. 7a), mean of three wells (reading M78): 2.117 | Th-T fluorescence of Aβ42 (sheet Fig. 7a), mean of three wells (reading M79): 2.1153 | Th-T fluorescence of Aβ42 (sheet Fig. 7a), mean of three wells (reading M80): 2.1 | Th-T fluorescence of Aβ42 (sheet Fig. 7a), mean of three wells (reading M81): 2.1 | Th-T fluorescence of Aβ42 (sheet Fig. 7a), mean of three wells (reading M82): 2.102 | Th-T fluorescence of Aβ42 (sheet Fig. 7a), mean of three wells (reading M83): 2.096 | Th-T fluorescence of Aβ42 (sheet Fig. 7a), mean of three wells (reading M84): 2.077 | Th-T assay plate reading, mean of three wells (Supplementary Fig. 47) (measurement M1): 0.2292 | Th-T assay plate reading, mean of three wells (Supplementary Fig. 47) (measurement M2): 0.2238 | Th-T assay plate reading, mean of three wells (Supplementary Fig. 47) (measurement M3): 0.2417 | Th-T assay plate reading, mean of three wells (Supplementary Fig. 47) (measurement M4): 0.2884 | Th-T assay plate reading, mean of three wells (Supplementary Fig. 47) (measurement M5): 0.3754 | Th-T assay plate reading, mean of three wells (Supplementary Fig. 47) (measurement M6): 0.3834 | Th-T assay plate reading, mean of three wells (Supplementary Fig. 47) (measurement M7): 0.4602 | Th-T assay plate reading, mean of three wells (Supplementary Fig. 47) (measurement M8): 0.4852 | Th-T assay plate reading, mean of three wells (Supplementary Fig. 47) (measurement M9): 0.5189 | Th-T assay plate reading, mean of three wells (Supplementary Fig. 47) (measurement M10): 0.5747 | Th-T assay plate reading, mean of three wells (Supplementary Fig. 47) (measurement M11): 0.6382 | Th-T assay plate reading, mean of three wells (Supplementary Fig. 47) (measurement M12): 0.9536 | Th-T assay plate reading, mean of three wells (Supplementary Fig. 47) (measurement M13): 1.7846 | Th-T assay plate reading, mean of three wells (Supplementary Fig. 47) (measurement M14): 2.679 | Th-T assay plate reading, mean of three wells (Supplementary Fig. 47) (measurement M15): 3.243 | Th-T assay plate reading, mean of three wells (Supplementary Fig. 47) (measurement M16): 3.548 | Th-T fluorescence, mean of three wells (Fig. 7a) (reading M107, compound at 10 (head suffix _10)): 3.243 | Th-T fluorescence, mean of three wells (Fig. 7a) (reading M107, compound at 20 (head suffix _20)): 3.218 | Th-T fluorescence, mean of three wells (Fig. 7a) (reading M107, compound at 50 (head suffix _50)): 2.093 | Th-T fluorescence, mean of three wells (Fig. 7a) (reading M108, compound at 10 (head suffix _10)): 3.266 | Th-T fluorescence, mean of three wells (Fig. 7a) (reading M108, compound at 20 (head suffix _20)): 3.22 | Th-T fluorescence, mean of three wells (Fig. 7a) (reading M108, compound at 50 (head suffix _50)): 2.097 | Th-T fluorescence, mean of three wells (Fig. 7a) (reading M109, compound at 10 (head suffix _10)): 3.248 | Th-T fluorescence, mean of three wells (Fig. 7a) (reading M109, compound at 20 (head suffix _20)): 3.217 | Th-T fluorescence, mean of three wells (Fig. 7a) (reading M109, compound at 50 (head suffix _50)): 2.11 | Th-T fluorescence, mean of three wells (Fig. 7a) (reading M110, compound at 10 (head suffix _10)): 3.266 | Th-T fluorescence, mean of three wells (Fig. 7a) (reading M110, compound at 20 (head suffix _20)): 3.23 | Th-T fluorescence, mean of three wells (Fig. 7a) (reading M110, compound at 50 (head suffix _50)): 2.1005 | Th-T fluorescence, mean of three wells (Fig. 7a) (reading M111, compound at 10 (head suffix _10)): 3.255 | Th-T fluorescence, mean of three wells (Fig. 7a) (reading M111, compound at 20 (head suffix _20)): 3.22 | Th-T fluorescence, mean of three wells (Fig. 7a) (reading M111, compound at 50 (head suffix _50)): 2.105 | Th-T fluorescence, mean of three wells (Fig. 7a) (reading M112, compound at 10 (head suffix _10)): 3.256 | Th-T fluorescence, mean of three wells (Fig. 7a) (reading M112, compound at 20 (head suffix _20)): 3.191 | Th-T fluorescence, mean of three wells (Fig. 7a) (reading M112, compound at 50 (head suffix _50)): 2.0956 | Th-T fluorescence, mean of three wells (Fig. 7a) (reading M113, compound at 10 (head suffix _10)): 3.234 | Th-T fluorescence, mean of three wells (Fig. 7a) (reading M113, compound at 20 (head suffix _20)): 3.181 | Th-T fluorescence, mean of three wells (Fig. 7a) (reading M113, compound at 50 (head suffix _50)): 2.0902 | Th-T fluorescence, mean of three wells (Fig. 7a) (reading M114, compound at 10 (head suffix _10)): 3.244 | Th-T fluorescence, mean of three wells (Fig. 7a) (reading M114, compound at 20 (head suffix _20)): 3.188 | Th-T fluorescence, mean of three wells (Fig. 7a) (reading M114, compound at 50 (head suffix _50)): 2.0998 | Th-T fluorescence, mean of three wells (Fig. 7a) (reading M115, compound at 10 (head suffix _10)): 3.222 | Th-T fluorescence, mean of three wells (Fig. 7a) (reading M115, compound at 20 (head suffix _20)): 3.199 | Th-T fluorescence, mean of three wells (Fig. 7a) (reading M115, compound at 50 (head suffix _50)): 2.1006 | Th-T fluorescence, mean of three wells (Fig. 7a) (reading M116, compound at 10 (head suffix _10)): 3.244 | Th-T fluorescence, mean of three wells (Fig. 7a) (reading M116, compound at 20 (head suffix _20)): 3.193 | Th-T fluorescence, mean of three wells (Fig. 7a) (reading M116, compound at 50 (head suffix _50)): 2.109 | Th-T fluorescence, mean of three wells (Fig. 7a) (reading M117, compound at 10 (head suffix _10)): 3.211 | Th-T fluorescence, mean of three wells (Fig. 7a) (reading M117, compound at 20 (head suffix _20)): 3.166 | Th-T fluorescence, mean of three wells (Fig. 7a) (reading M117, compound at 50 (head suffix _50)): 2.104 | Th-T fluorescence, mean of three wells (Fig. 7a) (reading M118, compound at 10 (head suffix _10)): 3.228 | Th-T fluorescence, mean of three wells (Fig. 7a) (reading M118, compound at 20 (head suffix _20)): 3.17 | Th-T fluorescence, mean of three wells (Fig. 7a) (reading M118, compound at 50 (head suffix _50)): 2.102 | Th-T fluorescence, mean of three wells (Fig. 7a) (reading M119, compound at 10 (head suffix _10)): 3.2146 | Th-T fluorescence, mean of three wells (Fig. 7a) (reading M119, compound at 20 (head suffix _20)): 3.1938 | Th-T fluorescence, mean of three wells (Fig. 7a) (reading M119, compound at 50 (head suffix _50)): 2.1065 | Th-T fluorescence, mean of three wells (Fig. 7a) (reading M120, compound at 10 (head suffix _10)): 3.221 | Th-T fluorescence, mean of three wells (Fig. 7a) (reading M120, compound at 20 (head suffix _20)): 3.171 | Th-T fluorescence, mean of three wells (Fig. 7a) (reading M120, compound at 50 (head suffix _50)): 2.103 | Th-T fluorescence, mean of three wells (Fig. 7a) (reading M121, compound at 10 (head suffix _10)): 3.196 | Th-T fluorescence, mean of three wells (Fig. 7a) (reading M121, compound at 20 (head suffix _20)): 3.1528 | Th-T fluorescence, mean of three wells (Fig. 7a) (reading M121, compound at 50 (head suffix _50)): 2.099 | Th-T fluorescence, mean of three wells (Fig. 7a) (reading M122, compound at 10 (head suffix _10)): 3.2052 | Th-T fluorescence, mean of three wells (Fig. 7a) (reading M122, compound at 20 (head suffix _20)): 3.15 | Th-T fluorescence, mean of three wells (Fig. 7a) (reading M122, compound at 50 (head suffix _50)): 2.114 | Th-T fluorescence, mean of three wells (Fig. 7a) (reading M123, compound at 10 (head suffix _10)): 3.204 | Th-T fluorescence, mean of three wells (Fig. 7a) (reading M123, compound at 20 (head suffix _20)): 3.156 | Th-T fluorescence, mean of three wells (Fig. 7a) (reading M123, compound at 50 (head suffix _50)): 2.111 | Th-T fluorescence, mean of three wells (Fig. 7a) (reading M124, compound at 10 (head suffix _10)): 3.218 | Th-T fluorescence, mean of three wells (Fig. 7a) (reading M124, compound at 20 (head suffix _20)): 3.1455 | Th-T fluorescence, mean of three wells (Fig. 7a) (reading M124, compound at 50 (head suffix _50)): 2.111 | Th-T fluorescence, mean of three wells (Fig. 7a) (reading M125, compound at 10 (head suffix _10)): 3.1992 | Th-T fluorescence, mean of three wells (Fig. 7a) (reading M125, compound at 20 (head suffix _20)): 3.1234 | Th-T fluorescence, mean of three wells (Fig. 7a) (reading M125, compound at 50 (head suffix _50)): 2.096 | Th-T fluorescence, mean of three wells (Fig. 7a) (reading M126, compound at 10 (head suffix _10)): 3.205 | Th-T fluorescence, mean of three wells (Fig. 7a) (reading M126, compound at 20 (head suffix _20)): 3.128 | Th-T fluorescence, mean of three wells (Fig. 7a) (reading M126, compound at 50 (head suffix _50)): 2.099 | Th-T fluorescence, mean of three wells (Fig. 7a) (reading M127, compound at 10 (head suffix _10)): 3.195 | Th-T fluorescence, mean of three wells (Fig. 7a) (reading M127, compound at 20 (head suffix _20)): 3.121 | Th-T fluorescence, mean of three wells (Fig. 7a) (reading M127, compound at 50 (head suffix _50)): 2.104 | Th-T fluorescence, mean of three wells (Fig. 7a) (reading M128, compound at 10 (head suffix _10)): 3.198 | Th-T fluorescence, mean of three wells (Fig. 7a) (reading M128, compound at 20 (head suffix _20)): 3.11 | Th-T fluorescence, mean of three wells (Fig. 7a) (reading M128, compound at 50 (head suffix _50)): 2.109 | Th-T fluorescence, mean of three wells (time-course reading M97): 4.216 | Th-T fluorescence, mean of three wells (time-course reading M98): 4.216 | Th-T fluorescence, mean of three wells (time-course reading M99): 4.236 | Th-T fluorescence, mean of three wells (time-course reading M100): 4.238 | Th-T fluorescence, mean of three wells (time-course reading M101): 4.225 | Th-T fluorescence, mean of three wells (time-course reading M102): 4.201 | Th-T fluorescence, mean of three wells (time-course reading M103): 4.222 | Th-T fluorescence, mean of three wells (time-course reading M104): 4.203 | Th-T fluorescence, mean of three wells (time-course reading M105): 4.225 | Th-T fluorescence, mean of three wells (time-course reading M106): 4.21 | Th-T fluorescence, mean of three wells (time-course reading M107): 4.216 | Th-T fluorescence, mean of three wells (time-course reading M108): 4.2224 | Th-T fluorescence, mean of three wells (time-course reading M109): 4.227 | Th-T fluorescence, mean of three wells (time-course reading M110): 4.248 | Th-T fluorescence, mean of three wells (time-course reading M111): 4.24 | Th-T fluorescence, mean of three wells (time-course reading M112): 4.225 | Th-T fluorescence, mean of three wells (time-course reading M113): 4.225 | Th-T fluorescence, mean of three wells (time-course reading M114): 4.212 | Th-T fluorescence, mean of three wells (time-course reading M115): 4.199 | Th-T fluorescence, mean of three wells (time-course reading M116): 4.199
